Here are results for 91 compounds from a melting point compilation (Tetko et al.; mined from patent text by program, amines drawn as free bases though some values may be those of a salt).

SMILES strings stand for the structures.

On to `C=C1C=Cc2cc(C(=O)O)ccc2OC1`, for which the melting point (commonly the temperature of the solid-liquid transition) is 188 °C. `Nc1nc(Cl)c2c(n1)OCC2`: the melting point lay in the range of 258 to 263 °C.

`COc1cc(C(=O)C#CCO)cc(OC)c1OC` displayed a melting point of 104 to 105 °C.

Turning to `CC(C)(C)c1ccc2c(c1)-c1c(c(C(=O)C(C#N)C(=O)Nc3ccccc3)nn1-c1ccccc1)CO2` (stereo unspecified), the melting point lay in the range of 270 to 273 °C. In the case of `CC(=O)OCC1CCCn2c(cc3ccccc32)C1` (stereo unspecified), the melting point worked out at 65 °C.

The compound `CON(C)C(=O)c1cc2cccc(NS(=O)(=O)c3cccs3)c2[nH]1` displayed a melting point of 180 to 181 °C. In the case of `N#Cc1cc(C[C@H](N)C(=O)O)ccc1O` it was more than 250 °C; in that of `O=[N+]([O-])c1ccccc1C1=NCC(=S)Nc2sc(Cl)cc21`, 213 to 215 °C; in that of `COC(=O)CCN1CCCC2(Cc3ccc(Br)cc3)C(=O)N(c3cc(Cl)nc(Cl)c3)C(=O)N12` (stereo unspecified), 157 °C.

Consider `O=C(NC(CS)Cc1ccccc1)N1CCN(c2ccc(Cl)cc2)CC1` (single isomer, unassigned; (+)), for which the melting point was found to be 148 °C.

The compound `CS(=O)(=O)c1cccc(C/C=C(/F)CN2C(=O)c3ccccc3C2=O)c1` displayed a melting point of 124 to 126 °C. In the case of `Cn1c(C(F)(F)F)nnc1S(C)(=O)=O` it was 96 °C; in that of `COc1cc2ncn(CCCCl)c(=O)c2cc1OC`, 143 °C; in that of `Fc1ccc(C(c2ccncc2)C2CCCCC2)cc1` (stereo unspecified), 78 to 81 °C. In the case of `CCOCc1nc2c(N)nc3cc(-c4ccccc4)cnc3c2n1CC(C)(C)F`, the melting point was in the range of 173 to 174 °C.

`N#Cc1ccc(Nn2ccnc2)cc1` showed a melting point of 162 °C. In the case of `c1ccc(OCCSCc2ncc(-c3ccc(N=C(c4ccccc4)c4ccccc4)cc3)o2)cc1` it was 86 to 90 °C; in that of `CC1(C)Oc2ccc(C#N)cc2[C@@H](NC(=O)c2ccccn2)[C@@H]1O` (relative stereo), 165 °C; in that of `CN1C/C(=C/C(=O)Nc2ccc(Cl)nn2)C[C@@H]2c3cccc4[nH]cc(c34)C[C@H]21`, 242 to 243 °C. The result for `CNC(=O)c1cc2nc(C(F)(F)F)ccc2c(OC)c1NC(=O)c1cc(C(F)(F)F)nn1-c1ncccc1Cl` reads 209 to 211 °C. For the compound `O=C(NCCO)/C(=C/c1ccc(OCC(F)(F)F)cc1)NC(=O)c1ccc(OCCC2CC2)cc1`, the melting point fell in the range of 173 to 175 °C. The result for `COc1ccc(C(=O)NNC(=O)c2ccccc2)cc1` reads 201 to 202 °C. In the case of `Cc1c(Nc2c(C#N)cnc3sc(C(=O)O)cc23)ccc2[nH]ccc12` it was 287 °C; in that of `COc1ccc(OC)c(CC2=C(C)C(=O)C3C=CC=CC3C2=O)c1` (stereo unspecified), 140 to 142 °C; in that of `CCOC(=O)C=C(C)Oc1ccc(C23CC4CC(CC(C4)C2)C3)cc1`, 97 to 98 °C.

In the case of `COc1ccc2c(n1)C1(CO2)C(=O)N(Cc2ncccc2C(F)(F)F)c2ccccc21` (stereo unspecified), the melting point was 195 to 198 °C. The result for `CC(C)(C)C1=CC(=CC#Cc2ccc(C(=O)O)cc2)C=C(C(C)(C)C)C1=O` reads 216 to 218 °C. In the case of `COc1ccc(CN(C)CCCSc2ccc(NC(=O)c3cccc4c(=O)c5cccc(OC)c5[nH]c34)cc2)cc1OC` it was 184 to 186 °C; in that of `Cn1c(C(N)=O)c(-c2ccc(N)cc2)c2ccccc21`, 96 to 98 °C.

On to `CCCc1nc(NS(=O)(=O)c2ccc(C(C)(C)C)cc2)c(-c2ccc(C)cc2)c(OCCO)n1`, for which the melting point lay in the range of 133 to 134 °C. The result for `CCOP(=O)(CC(=O)Nc1cc2c(Nc3ccc(Br)c(Br)c3)ncnc2cn1)OCC` reads 120 to 124 °C; that for `ClCc1ccc2ccc3cccc4ccc1c2c34`, 146 to 148 °C.

`COc1ccc2c(c1)OCC(c1ccccc1)C2c1ccc(OCCN2CCCC2)cc1` (stereo unspecified): the melting point lay within 113 to 114 °C.

As for `Cc1cccc(Nc2cc(Cl)nc(SCC(=O)O)n2)c1C`, the melting point was in the range of 146 to 151 °C. Consider `CNC1=Nc2ccccc2C(O)(c2ccccc2)C1(C)C` (stereo unspecified), for which the melting point lay within 192 to 194 °C.

Consider `CN(C)c1ccc2nc(N)c(C#N)c(O)c2c1`, for which the melting point was determined as 360 °C. The result for `Cc1csc(NC(=O)C(C(=O)OC(C)C)=C2SCCS2)n1` reads 161 to 162 °C.

In the case of `O=C(Nc1ccc(F)cc1F)c1ccccn1`, the melting point was 90.5 to 95 °C. In the case of `COc1ccc(C(=O)N2CC[C@@H](O)C2=O)cc1O` it was 129 to 131 °C. As to `CN(C)S(=O)(=O)N[Si](C)(C)C`, the melting point fell in the range of 83 to 86 °C. The result for `O=C1CCC(=O)N1c1ccncc1` reads 232 to 235 °C. In turn, `COc1ccc2c(c1)CC(n1cc[nH]c1=S)CC2` (stereo unspecified) registered a melting point of 271 to 273 °C. In the case of `O=C(O)c1cccc2c1ccn2-c1ccnc(N[C@H]2CC[C@H](O)CC2)n1` it was 259 to 261 °C; in that of `CC(=O)C(Cc1nsc2ccc(-n3c(=O)cc(C(F)(F)F)n(C)c3=O)cc12)C(=O)O` (stereo unspecified), 191 to 193 °C. The result for `Clc1ccc2c(c1)N=C(NCCc1cccnc1)c1ccccc1N2` reads 195 to 196 °C. In the case of `CCc1noc(-c2cn(-c3cccc(Oc4ccc(Cl)cc4)c3)cn2)n1` it was 120 to 122 °C; in that of `COc1ccc2c(c1)CCC(=CO)C2=O`, 66 to 68 °C. As for `CCC1CC(=O)Nc2c1cnn2CC` (stereo unspecified), the melting point is 203 to 204 °C. The result for `CCOc1cc(C(CC(=O)OC)N2Cc3ccccc3C2=O)ccc1OC` (stereo unspecified) reads 78 to 80 °C. In the case of `CC1=C(C(=O)O)N2C(=O)C(NC(=O)Cc3ccc(CCl)cc3)C2SC1` (stereo unspecified) it was 145 to 146 °C. The compound `COP(=O)(OC)C(CCc1cc(C)nc2c(C#N)c(C)nn12)P(=O)(OC)OC` came in with a melting point of 100 to 101 °C. In the case of `CC(C)(Cn1cncn1)C(=O)C=Cc1ccc2ccccc2c1` it was 103 to 104 °C; in that of `NC(=O)C(Oc1ccc(Cl)cc1)(C(F)(F)F)C(F)(F)F`, 77 to 79 °C; in that of `O=C(Nc1ccc2cc(CN3CCCC3)cnc2c1F)c1ccc(-c2ccc(Cl)cc2)cc1F`, 208 °C. In the case of `Cn1nnnc1NCC(O)CCOc1cccc(CN2CCCCC2)c1` (stereo unspecified) it was 138 to 139 °C; in that of `CCC12CCC3C4CCC(=O)C=C4CCC3C1CCC2OC1CCCCO1` (stereo unspecified), 148 to 152 °C. Turning to `CN[C@@H]1CCCC[C@H]1NC` (relative stereo), the melting point was 17 °C. In the case of `O=C(O)CCCC#CCC1=CC(O)CC1=O` (stereo unspecified) it was 65 to 71 °C. The result for `CCOC(=O)CSC1(SCC(=O)OCC)CCC2C3CCC4=CC(=O)C=CC4(C)C3(F)C(O)CC21C` (stereo unspecified) reads 125 to 127 °C; that for `FC(F)(F)c1cc(Cl)c(-n2cccn2)c(Cl)c1`, 83 to 85 °C. The result for `O=C1Nc2ccccc2CCCC1N1C(=O)c2ccccc2C1=O` (stereo unspecified) reads 229 to 230 °C. `Nc1ccccc1N(C=O)CCCCO` came in with a melting point of 77 to 79 °C. In the case of `COC(=O)c1ccc2c(c1)NC(=O)c1cccnc1N2` it was 344 to 349 °C. The result for `CCCCOc1c(C(C)O)n(C)c(=O)c2cc(Cl)c(Cl)cc12` (stereo unspecified) reads 123 to 124 °C. In the case of `CC1(C)Oc2ccccc2-n2cnc(-c3noc(C4CC4)n3)c21` it was 155 to 156 °C; in that of `CC(CCC(=O)O)C1CCC2C3C(=O)CC4CC(OC5CCCCO5)CCC4(C)C3CCC12C` (stereo unspecified), 157 to 159 °C; in that of `COC(=O)CC=Cc1c(C(C)C)cc(C(C)C)cc1C(C)C`, 61 to 63 °C.

Turning to `COc1ccc(S)nn1`, the melting point lay in the range of 198 to 200 °C. `C#CCS(=O)c1c(O)cc(C)oc1=O` (stereo unspecified): the melting point stood at 134 °C.

In turn, `OC(CCc1cccnc1)COc1ccc2ccccc2c1` (stereo unspecified) yielded a melting point of 93 to 95 °C. In the case of `N#Cc1ccc(Oc2ccc(C#N)cc2C#N)cc1` it was 222 to 223 °C. Compound `CCCn1c(=O)c2[nH]c(-c3cc(C)n(CC(=O)Nc4ccc(Br)cc4)n3)nc2n(CCC)c1=O` came in with a melting point of 270 to 273 °C. The result for `O=C(CCc1ccc(O)c(C=Nc2ccccc2O)c1)ON1C(=O)CCC1=O` reads 170 °C; that for `COc1ccc(Cl)n2nc(S(=O)(=O)Cl)nc12`, 149 to 151 °C; that for `COc1ccc(C2=C(C#N)C(c3cccc4nsnc34)c3c[nH]nc3N2)cc1` (stereo unspecified), 238 °C. In the case of `COc1cc2c(c3c1OC(C)(C)C3)C(c1ccc(=O)n(-c3ccc4ccccc4n3)c1)=NC(C)(C)C2` it was 191 to 192 °C; in that of `CCCCC/C=C\C/C=C\CCCCCCC[C@@H](C[C@@H]1OC(=O)[C@H]1CC)OC(=O)[C@H](CC(C)C)NC=O`, 48 to 53 °C. The result for `CC1(C)Oc2ccc(C#N)cc2[C@@H](NC=O)[C@@H]1OC=O` (relative stereo) reads 171 to 172 °C; that for `COc1ccc2cc(C(=O)O)sc(=O)c2c1`, 291 to 292 °C; that for `COc1nc(C)nc(NC(=O)NS(=O)(=O)c2ccccc2C(=O)Nc2nc[nH]n2)n1`, 176 to 179 °C. For the compound `CCc1cc(Cl)c(C)c(Oc2c(C)cc(C)cc2C)n1`, the melting point was in the range of 42 to 44 °C. In the case of `Nc1cc(=O)nc(Nc2ccc(F)cc2)n1-c1ccccc1` it was 225 to 227 °C; in that of `CC(C)Cn1cc(F)c(-n2cncn2)nc1=O`, 150 to 153 °C. As for `O=C(Nc1ccc(Cl)cc1)C(O)c1ccccc1Cl` (stereo unspecified), the melting point is 120 °C. `CCNC(=O)c1ccc2cc(-c3csc(N(C)S(=O)(=O)c4ccccc4)n3)c(=O)[nH]c2c1` returned a melting point of more than 300 °C. The result for `CC(C)CC(NCC(=O)NOCc1ccccc1)C(=O)NC(Cc1ccc2ccccc2c1)C(=O)NC(C)C(N)=O` (stereo unspecified) reads 205 to 212 °C; that for `CCOC(=O)Cn1cccc(O)c1=O`, 141 to 151 °C; that for `CN(CCCO)C(=O)c1cc2ccccc2c(-c2ccccc2I)n1`, 51 to 52 °C. `Cn1cc(C(=O)CN2CCN(c3ncccn3)CC2)cc1C(=O)c1ccc([N+](=O)[O-])cc1` displayed a melting point of 164 to 166 °C. In turn, `CCOC(=O)C1=C(C)NC(C)=C(C(=O)OCCBr)C1c1cccc([N+](=O)[O-])c1` (stereo unspecified) registered a melting point of 158 to 159 °C. The result for `NCc1cc(Cl)ccc1OCC(N)=O` reads 135 to 137 °C.
